From patent US20110281947A1, “METHODS OF ADMINISTERING DICLOFENAC COMPOSITIONS FOR TREATING PHOTODAMAGED SKIN” (priority 2004, published 2011) come the findings set out here.

The nature of the data set: Topical application of NSAID with hyaluronic acid to patients: side effects and pain relief. Format: in vivo, human. The conditions noted are these: for relief of pain: patients using combination with hyaluronic acid (sodium hyaluronate). An excerpt: (This may be in part because of the clearing of the hyaluronic acid through the lymphatic system from the site).

SMILES strings stand for the structures.

As for `O=C(O)Cc1ccccc1Nc1c(Cl)cccc1Cl` [diclofenac, Ortho-((2,6-dichlorophenyl)amino)phenylacetic acid], the relief of pain result is “dramatic relief of pain immediately”.
Regarding `COc1ccc2c(c1)c(CC(=O)O)c(C)n2C(=O)c1ccc(Cl)cc1` [indomethacin], the relief of pain result is recorded as “dramatic relief of pain immediately”. Further, the “major toxic side effects (gastro-intestinal distress, neurological abnormalities, depression)” value (dissolved in n-methyl glucamine, applied topically with hyaluronic acid, even at elevated amounts) was “no major toxic side effects occur”.
